Consider `CC(C)C(O)(c1ccccc1)c1cc(Cl)ccc1O` (stereo unspecified), for which the melting point – broadly, the temperature, or range, at which the solid turns liquid – stood at 114 °C.
`c1ccc(CN2CC3CC2CN3C2=Nc3ccccc3Oc3ccccc32)cc1` (stereo unspecified) showed a melting point of 70 to 72 °C.
Turning to `CCCC12CCC(=O)C=C1c1c(cc(OC)c(Cl)c1Cl)C2O` (stereo unspecified), the melting point is 173 to 175 °C.
In turn, `ClCc1cnn(-c2ccc(Cl)c(Cl)c2)c1` displayed a melting point of 66 to 67 °C.
With `CCCCC(=O)Nc1ccc(C(F)(F)F)c(-n2nc(CC)n(Cc3ccc(-c4ccccc4S(=O)(=O)NC(=O)OC(C)(C)C)cc3F)c2=O)c1` the figure was 121 to 123 °C.
As to `CCCc1c(SCCCOc2ccc3c(=O)cc(CCC(=O)O)oc3c2CCC)ccc(C(C)=O)c1N`, the melting point fell in the range of 153 to 155 °C.
`O=C(O)CS(=O)(=O)c1ccc2c(-c3ccc(Cl)cc3)noc2c1Cl` came in with a melting point of 212 to 213 °C.
With `COc1ccc(C(C)(CC(C)C)C(=O)NC2CCCCCCCCCCNC2=O)c(S)c1` (stereo unspecified) the figure was 131 to 136 °C.
Molecule `COC(=O)[C@H](Cc1cc(Cl)c(OCc2cccc3cc(-c4ccccc4)oc23)c(Cl)c1)NC(=O)C(F)(F)F` registered a melting point of 141 to 145 °C.
With `COc1cc2c(cc1OC)-c1c(N3CCNCC3)nc3ccccc3c1C2=O` the figure was 135 to 136 °C; with `CCCCC(CC)COc1cc(CCl)c(OC)cc1CCl` (stereo unspecified), 58 to 60 °C.
`N#Cc1cnn2c(-c3ccccc3)ccnc12` registered a melting point of 230 to 232 °C.
The value for `CNS(=O)(=O)c1ccc(C)c(CCCOCCn2cnc3c(N)nc4ccccc4c32)c1` was 207 to 209 °C; that for `N#CC(C#N)=C(N)NCCCc1ccccc1` was 165 to 167 °C; that for `COc1ccc(CN2Cc3c(-c4noc(C5CC5)n4)ncn3-c3ccc(Cl)cc3C2=O)c(OC)c1` was 198 to 205 °C.
With `Cc1oc(-c2ccccc2)nc1COc1ccc(Cc2nc(CCC(=O)O)c(-c3ccccc3)s2)cc1` the figure was 119 to 120 °C; with `CCOC(=O)[C@H](C)NC(=O)CCc1cc(Cl)ccc1C(=O)CCCNC(C)=O`, 106 °C; with `CN[C@@H]1Cc2cccc3[nH]c(=S)n(c23)C1`, 210 to 213 °C.
`N#CC1=C(c2ccccc2)Nc2n[nH]cc2C1c1ccccc1C#N` (stereo unspecified) displayed a melting point of 148 °C.
For the molecule `Cc1cc(-c2cc(=O)c3cccnc3o2)cc(C)c1OCC(=O)O`, the melting point came to 280 °C.
In turn, `Cc1c(C=CCO)[nH]c(=O)c2c1ccc1nc(Nc3c(Cl)cccc3Cl)n(C)c12` came in with a melting point of 298 to 300 °C.
In the case of `Nc1nc(CCc2ccccc2)cc(C2CCN(C(=O)c3ccccc3)CC2)n1`, the melting point fell in the range of 104 to 106 °C.
With `CCCC(=O)NCCc1cc(-c2cccc(C(=O)OC)c2)cc2ccc(OC)cc12`, the melting point was in the range of 86 to 88 °C.
The value for `CCOC(=O)/C=C/c1ccc(OCOC)cc1Oc1ccc(C(F)(F)F)cn1` was 69 to 70 °C.
Molecule `Oc1ccc(-c2cc(F)c3cc(O)ccc3c2)cc1` returned a melting point of 236 to 238 °C.
`CCOC(=O)c1c(C)nc(N2CCN(C)CC2)c2nnn(CC)c12` came in with a melting point of 63 to 65 °C.
`CNC[C@H]1CC[C@H](C(=O)O)CC1` showed a melting point of 261 °C.
Take `COc1ccc(Cn2c(S)nnc2C(N)=O)cc1`: the melting point was 240 to 242 °C.
On to `O=C(NC(Cc1ccccc1)C(=O)O)OCc1ccc(CCCc2ccccc2)cc1` (stereo unspecified), for which the melting point turned out to be 135 °C.
Molecule `O=c1ccc(S(=O)(=O)c2c[nH]c3ccccc23)n[nH]1` came in with a melting point of 248 to 250 °C.
`CC(C)Oc1c(F)c(F)cc2c(=O)c(C(=O)O)cn(-c3cc(N)c(F)cc3F)c12`: the melting point is 217 to 222 °C.
Turning to `N=C(N)NC(=O)c1cn(-c2nccc3ccccc23)c2ncccc12`, the melting point turned out to be 250 °C.
`CCc1cccc(CNC[C@@H](O)[C@H](Cc2cc(F)cc(F)c2)NC(=O)c2ccc(CS(C)(=O)=O)s2)c1` yielded a melting point of 128 to 131 °C.
Take `COC1=Nc2cc(OC)c(F)cc2C(c2ccccc2Cl)=NC1C(C)=O` (stereo unspecified): the melting point lay in the range of 172 to 174 °C.
For `CCC(CO)Nc1c(-c2c(F)cc(F)cc2F)c(Cl)nc2ncnn12` (stereo unspecified), the melting point was 76 to 77 °C.
With `C[Si](C)(C)OCCCc1c[nH]c2ccccc12` the figure was 34 to 38 °C.
With `CCOc1cc2c3ccccc3c(C=O)cc2c2ccccc12` the figure was 174 to 176 °C; with `C=CC[C@H]1Cc2c(OCOC)cccc2C(O)O1` (stereo partly specified), 72 to 74 °C.
As to `CN(C=O)c1ccccc1C(=O)COS(C)(=O)=O`, the melting point was in the range of 67 to 69 °C.
In the case of `COC(=O)c1cc2ccoc2nc1C1=NC(C)(C(C)C)C(=O)N1` (stereo unspecified), the melting point lay within 134 to 137 °C.
The value for `CCCCc1ccc(NC=O)c([N+](=O)[O-])c1` was 72 to 73 °C; that for `O=C(O)C(S)c1cc(Cl)ccc1Cl` (stereo unspecified) was 129 to 130 °C; that for `CN1CCC(=C2c3ccccc3C=Cc3ccc(C(=O)OCn4ccnc4)cc32)CC1` was 118 to 121 °C.
Take `CS(=O)(=O)Nc1nc(CN2CCN(C(c3ccccc3)c3ccccc3)CC2)cs1`: the melting point was in the range of 177 to 179 °C.
For the molecule `CCOC(=O)C1=C(C)NC(CSCCC#N)=C(C(=O)OCC)C1c1cccc([N+](=O)[O-])c1` (stereo unspecified), the melting point lay in the range of 102 to 104 °C.
The molecule `CN=C(C1=C(O)C(=O)c2ccccc2C1=O)c1ccccc1` showed a melting point of 235 to 237 °C.
`CC(C)n1nc(-c2cnc(N)nc2-c2ccc(Cl)cc2)ccc1=O` displayed a melting point of 195 °C.
The value for `COc1ccc2ccc(S(=O)(=O)N[C@@H](CCCNC(=N)N)C(=O)N3CCC(c4ccccc4)CC3C(=O)O)cc2c1` (stereo partly specified) was 183 to 186 °C; that for `CCOc1ccn2nc(S(=O)(=O)Cl)nc2n1` was 91 to 96 °C; that for `Cc1nc(Cl)c([N+](=O)[O-])c(NCC(C)(C)NC(=O)OC(C)(C)C)c1C` was 97 to 100 °C.
Take `Oc1c2c(c(O)c3ccccc13)CCCC2`: the melting point was 210 to 212 °C.
`O=C(O)c1ccc(OCCCc2ccc(O)c(O)c2)cc1` yielded a melting point of 180 to 185 °C.
With `O=C1CCC2=C1C(c1ccc(F)c(C(F)(F)F)c1)C1=C(CCS1)N2` (stereo unspecified) the figure was 254 °C; with `COc1cc(O)nc(C2CC2)n1`, 186 °C.
On to `Clc1ccc([C@H]2Cc3cnc(Nc4ccccc4)nc3-c3ccccc32)cc1Cl`, for which the melting point is 156 to 157 °C.
For the molecule `CC1(C)CC(OC(=O)CCc2cc(-n3nc4ccc(S(=O)(=O)c5ccccc5)cc4n3)c(O)c(C(C)(C)C)c2)CC(C)(C)N1`, the melting point fell in the range of 85 to 125 °C.
Consider `CC#CCOc1ccc(S(=O)(=O)C2(C(=O)O)CCN(C(C)C)CC2)cc1`, for which the melting point is 233 °C.
`COc1ccc(/C=C2\C3=C(CCCC3)CCN2C(C)=O)cc1`: the melting point was in the range of 74.5 to 76 °C.
As to `COc1ccc2cc(CCc3ccc(OCC(O)CNC(C)C)c(OC)c3)n(C)c(=O)c2c1` (stereo unspecified), the melting point was 162 to 164 °C.
`CCOC(=O)NCc1cccc(C(=O)OC)c1C(=O)OC`: the melting point fell in the range of 187 to 189 °C.
Regarding `O=C1NC(=O)c2ccc(I)cc2/C1=C/Nc1ccc(CN2CCCCC2)cc1`, the melting point is 202 to 203 °C.
For `Cc1ncc2c(n1)N(CC(O)CO)C(=O)CO2` (stereo unspecified), the melting point lay in the range of 70 to 72 °C.
The value for `Cc1cc(C#N)cc(Oc2[nH]c(=O)[nH]c(=O)c2C(C)C)c1` was 272 to 275 °C.
As to `CC1=C(C(=O)OCCN(C)Cc2ccccc2)C(c2cccc([N+](=O)[O-])c2)C(P2(=O)OCCCO2)=C(C)N1` (stereo unspecified), the melting point fell in the range of 139 to 140 °C.
`CC#CCOc1ccc(S(=O)(=O)C2(C(=O)O)CCN(Cc3ccc(OCCN4CCCCC4)cc3)CC2)cc1` returned a melting point of 172 °C.
For `COc1ccc(C(=O)Nc2ccccc2)c2c1oc1ccc(NC(C)=O)cc12`, the melting point was 252 °C.
Take `COC(=O)c1ccc(OCCCCCCc2ccc3cc(OCc4ccccc4)c(OCc4ccccc4)cc3c2)cc1`: the melting point lay in the range of 121 to 125 °C.
For `CNc1c([N+](=O)[O-])ccc2c1OC(COS(=O)(=O)c1ccc(C)cc1)CO2` (stereo unspecified), the melting point lay within 149 to 151 °C.
Take `CCCCN1C(N)=NS(=O)(=O)N=C1Oc1cccc(C)c1`: the melting point fell in the range of 208 to 213 °C.
The molecule `Cc1c(-c2cccc(O)c2O)c(=O)oc2cc(O)ccc12` gave a melting point of 273 to 274 °C.
In turn, `COc1cc2c(c(Cl)c1Cl)C(=O)C(c1ccccc1)(c1ccccc1)C2` had a melting point of 172 to 174 °C.
In the case of `CCCc1nc(C(OCC)OCC)cc(NC(c2ccccc2)(c2ccccc2)c2ccccc2)c1F`, the melting point fell in the range of 111 to 112 °C.
For `COc1ccc(C=Cc2ncn(CC(O)(Cn3cncn3)c3ccc(F)cc3F)n2)cc1` (stereo unspecified), the melting point lay within 150 to 152 °C.
`CC(C)(C)[Si](C)(C)OC(CCCOC1CCCCO1)COc1ccc2c(=O)cc(-c3ccccc3)oc2c1` (stereo unspecified): the melting point lay within 138 to 145 °C.
Molecule `CCCc1c(OCCCCCCc2cccc(OCC(=O)O)c2CCC(=O)O)ccc2c1OCCC2=O` yielded a melting point of 127 to 129 °C.
On to `CC(C)NCCCC(O)c1ccccc1-c1ccccc1` (stereo unspecified), for which the melting point was 78 to 80 °C.
Molecule `O=C(O)CCC(CCCCNS(=O)(=O)c1ccc(Cl)cc1)CCCn1ccnc1` (stereo unspecified) returned a melting point of 136 to 138 °C.
As to `CC(C(=O)c1ncn2c1c(=O)n(C(C)C)c1ccccc12)C(=O)C1CC1` (stereo unspecified), the melting point lay within 167 to 169 °C.
On to `COC(=O)C1c2ccccc2C2C(=O)NCCN21` (stereo unspecified), for which the melting point fell in the range of 165 to 167 °C.
Take `CCOC(=O)c1cccc(NC(=O)Nc2ccc(-n3nc(C(F)(F)F)cc3C(F)(F)F)cc2)c1`: the melting point lay within 211 to 212 °C.
In turn, `CCc1noc(-c2cc3c(cn2)[nH]c2cccc(Oc4ncccn4)c23)n1` gave a melting point of 254 to 256 °C.
Turning to `O=C(CN1CCC(Cc2ccccc2)CC1)Nc1ccc(O)cc1`, the melting point lay in the range of 66 to 70 °C.
The value for `CN(C)c1ccc(Nc2cccc3c2C(=O)N(C2CCC(=O)NC2=O)C3=O)cc1` (stereo unspecified) was above 260 °C.
In turn, `COc1ccc(OC)c2c1ccn2Cc1ccc(Cl)cc1` came in with a melting point of 62 to 63 °C.
Molecule `COC(=O)CCC(=O)c1cc(NC(C)=O)ccc1O` showed a melting point of 145 to 147 °C.
`COc1ccc2c(c1)C1=C(SCC3(CCN(CC(O)COc4ccc(C(C)(C)C)cc4)CC3)O1)C(=O)C2=O` (stereo unspecified) returned a melting point of 153 to 156 °C.

Source of the values: a melting point compilation (Tetko et al.; mined from patent text by program, amines drawn as free bases though some values may be those of a salt).
